The record followed here is patent publication US9029389B2 (Institut Pasteur Korea, priority 2011, dated 2015).

The structures appear in SMILES notation.

By melting point is commonly meant the temperature of the solid-liquid transition. The term inhibition denotes the percentage by which the read-out fell short of the control. A lower inhibition goes with little suppression. What is called IC50 is the concentration at which inhibition is half-maximal. The low end stands for inhibition by little substance, the high end for a need for much substance.

In one data set the target is T1, Human 5-lipoxygenase (Homo sapiens, UniProt P09917).
T1 construct: purchased Cayman 60402; host or cells: insect cells
T1 sequence (P09917 1-674): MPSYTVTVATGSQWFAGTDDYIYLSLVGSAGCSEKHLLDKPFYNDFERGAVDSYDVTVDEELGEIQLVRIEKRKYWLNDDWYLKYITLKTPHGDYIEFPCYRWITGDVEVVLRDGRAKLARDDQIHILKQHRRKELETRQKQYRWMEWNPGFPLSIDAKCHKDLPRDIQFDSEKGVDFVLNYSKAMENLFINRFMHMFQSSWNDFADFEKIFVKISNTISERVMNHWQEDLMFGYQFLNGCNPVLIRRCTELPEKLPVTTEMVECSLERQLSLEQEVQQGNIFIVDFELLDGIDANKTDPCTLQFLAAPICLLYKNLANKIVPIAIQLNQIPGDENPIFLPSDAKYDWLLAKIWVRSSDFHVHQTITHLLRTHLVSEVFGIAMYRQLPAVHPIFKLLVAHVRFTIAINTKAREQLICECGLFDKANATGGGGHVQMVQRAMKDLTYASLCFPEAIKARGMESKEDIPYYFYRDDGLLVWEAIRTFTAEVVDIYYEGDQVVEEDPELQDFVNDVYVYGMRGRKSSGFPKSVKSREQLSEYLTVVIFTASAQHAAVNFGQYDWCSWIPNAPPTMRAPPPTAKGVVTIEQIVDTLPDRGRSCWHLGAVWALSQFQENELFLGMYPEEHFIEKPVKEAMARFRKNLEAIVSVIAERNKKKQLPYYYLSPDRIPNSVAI
Description: Activity of compounds against 5-LO enzyme (LTB4 measurement and/or fluorescence method). The format is biochemical. As to conditions: for inhibition at 10 µM: 5-LO, single concentration of 10 uM in duplicate; for IC50: 6 or 11 point dose response in duplicate. The gist of the method:
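Two read-outs: LTB4 measured by EIA and/or LC/MS/MS with LTB4-d4 standard after 15 min RT compound preincubation with insect-cell 5-LO and a 5 min 37 °C reaction on 3 uM arachidonic acid (0.1 mM ATP, pH 7.4). The room-temperature fluorescence format used 20 uM H2DCFDA, 100 uM ATP, 3 uM arachidonic acid, 5 min; IC50 from 6/11-point curves.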

`CCc1nc2cc(C)ccn2c1C(=O)NCc1ccc(N2CCN(c3ccc(F)cc3)CC2)cc1` [compound 220, 2-Ethyl-N-(4-(4-(4-fluorophenyl)piperazin-1-yl)benzyl)-7-methylimidazo[1,2-a]pyridine-3-carboxamide] came in with a melting point of 203.7 °C. At Human 5-lipoxygenase, the inhibition at 10 µM lay in the range of 40 to 69%.
For `CCc1nc2ccc(Cl)cn2c1C(=O)NCc1ccc(N2CCC3CCCCC3C2)cc1` (stereo not drawn) [compound 221, 6-Chloro-2-ethyl-N-(4-(octahydroisoquinolin-2(1H)-yl)benzyl)imidazo[1,2-a]pyridine-3-carboxamide] the same measures were 141.7 °C and < 40%.
For `CCc1nc2cc(Cl)ccn2c1C(=O)NCc1ccc(N2CCC3CCCCC3C2)cc1` (stereo not drawn) [compound 222, 7-Chloro-2-ethyl-N-(4-(octahydroisoquinolin-2(1H)-yl)benzyl)imidazo[1,2-a]pyridine-3-carboxamide] the same measures were 174.2 °C and < 40%.
Compound `CCc1nc2c(F)cccn2c1C(=O)NCc1ccc(N2CCN(c3ccc(F)cc3)CC2)cc1` [compound 223, 2-Ethyl-8-fluoro-N-(4-(4-(4-fluorophenyl)piperazin-1-yl)benzyl)imidazo[1,2-a]pyridine-3-carboxamide] gave a melting point of 204.1 °C. Besides, on Human 5-lipoxygenase, the inhibition at 10 µM is > 69% and the 50% inhibitory concentration (IC50) lay within 1000 to 20000 nM.
For `CCc1nc2c(F)cccn2c1C(=O)NCc1ccc(Oc2ccc(OC(F)(F)F)cc2)cc1` [compound 224, 2-Ethyl-8-fluoro-N-(4-(4-(trifluoromethoxy)phenoxy)benzyl)imidazo[1,2-a]pyridine-3-carboxamide] the same measures were 105.6 °C, > 69% and < 1000 nM.
On to `CCc1nc2ccc(F)cn2c1C(=O)NCc1ccc(Oc2ccc(OC(F)(F)F)cc2)cc1` [compound 225, 2-Ethyl-6-fluoro-N-(4-(4-(trifluoromethoxy)phenoxy)benzyl)imidazo[1,2-a]pyridine-3-carboxamide], for which the melting point was 133.4 °C. In addition, on Human 5-lipoxygenase, the inhibition at 10 µM was > 69% and the IC50 was < 1000 nM.
In turn, `CCc1nc2ccc(Br)cn2c1C(=O)NCc1ccc(Oc2ccc(OC(F)(F)F)cc2)cc1` [compound 226, 6-Bromo-2-ethyl-N-(4-(4-(trifluoromethoxy)phenoxy)benzyl)imidazo[1,2-a]pyridine-3-carboxamide] came in with a melting point of 152.9 °C. The inhibition at 10 µM on Human 5-lipoxygenase is < 40%.
For `CCc1nc2ccccn2c1C(=O)NCc1ccc(N2CCN(c3ccc(F)cc3)CC2)cc1` [compound 227, 2-Ethyl-N-(4-(4-(4-fluorophenyl)piperazin-1-yl)benzyl)imidazo[1,2-a]pyridine-3-carboxamide], the melting point amounted to 189.2 °C. At Human 5-lipoxygenase, the inhibition at 10 µM is > 69% and the IC50 was in the range of 1000 to 20000 nM.
For `CCc1nc2ccc(F)cn2c1C(=O)NCc1ccc(N2CCN(c3ccc(F)cc3)CC2)cc1` [compound 228, 2-Ethyl-6-fluoro-N-(4-(4-(4-fluorophenyl)piperazin-1-yl)benzyl)imidazo[1,2-a]pyridine-3-carboxamide] the same measures were 200.9 °C, > 69% and 1000 to 20000 nM.
Regarding `CCc1nc2ccc(Br)cn2c1C(=O)NCc1ccc(N2CCN(c3ccc(F)cc3)CC2)cc1` [compound 229, 6-Bromo-2-ethyl-N-(4-(4-(4-fluorophenyl)piperazin-1-yl)benzyl)imidazo[1,2-a]pyridine-3-carboxamide], the melting point was 218.1 °C. The inhibition at 10 µM against Human 5-lipoxygenase is < 40%.
`CCc1nc2ccc(Cl)cn2c1C(=O)NCc1ccc(N2CCC(CO)CC2)cc1` [compound 230, 6-Chloro-2-ethyl-N-(4-(4-(hydroxymethyl)piperidin-1-yl)benzyl)imidazo[1,2-a]pyridine-3-carboxamide]: the melting point is 161.1 °C. Moreover, the inhibition at 10 µM against Human 5-lipoxygenase is < 40%.
For the compound `CCc1nc2ccc(C)cn2c1C(=O)NCc1ccc(N2CCN(c3ccc(F)cc3)CC2)cc1` [compound 231, 2-Ethyl-N-(4-(4-(4-fluorophenyl)piperazin-1-yl)benzyl)-6-methylimidazo[1,2-a]pyridine-3-carboxamide], the melting point was found to be 187.6 °C. Further, at Human 5-lipoxygenase, the inhibition at 10 µM was > 69% and the concentration for half-maximal inhibition (IC50) was in the range of 1000 to 20000 nM.
Compound `CCc1nc2ccc(Cl)cn2c1C(=O)NCc1ccc(N2CCC(C(F)(F)F)CC2)cc1` [compound 233, 6-Chloro-2-ethyl-N-(4-(4-(trifluoromethyl)piperidin-1-yl)benzyl)imidazo[1,2-a]pyridine-3-carboxamide] displayed a melting point of 197.9 °C. The compound further registered an inhibition at 10 µM on Human 5-lipoxygenase of 40 to 69%.
In turn, `CCc1nc2cc(Cl)ccn2c1C(=O)NCc1ccc(N2CCC(C(F)(F)F)CC2)cc1` [compound 234, 7-Chloro-2-ethyl-N-(4-(4-(trifluoromethyl)piperidin-1-yl)benzyl)imidazo[1,2-a]pyridine-3-carboxamide] came in with a melting point of 209.4 °C. For the same compound, the inhibition at 10 µM against Human 5-lipoxygenase was < 40%.
Taken in the same sequence, the figures for `CCc1nc2ccc(Cl)cn2c1C(=O)NCc1ccc(N2CCC(F)(F)CC2)cc1` [compound 235, 6-chloro-N-(4-(4,4-difluoropiperidin-1-yl)benzyl)-2-ethylimidazo[1,2-a]pyridine-3-carboxamide] were 194.2 °C and < 40%.
Taken in the same sequence, the figures for `CCc1nc2cc(Cl)ccn2c1C(=O)NCc1ccc(N2CCC(F)(F)CC2)cc1` [compound 236, 7-Chloro-N-(4-(4,4-difluoropiperidin-1-yl)benzyl)-2-ethylimidazo[1,2-a]pyridine-3-carboxamide] were 166.3 °C and 40 to 69%.
For `CCc1nc2ccc(Cl)cn2c1C(=O)NCc1ccc(N2CCN3CCCC3C2)cc1` (stereo not drawn) [compound 237, 6-Chloro-2-ethyl-N-(4-(hexahydropyrrolo[1,2-a]pyrazin-2(1H)-yl)benzyl)imidazo[1,2-a]pyridine-3-carboxamide] the same measures were 163 °C and < 40%.
Compound `CCNC(=O)c1c(CC)nc2ccc(Cl)cn12` [compound 238, 6-Chloro-N,2-diethylimidazo[1,2-a]pyridine-3-carboxamide] came in with a melting point of 176.7 °C. Further, on Human 5-lipoxygenase, the inhibition at 10 µM was < 40%.
Taken in the same sequence, the figures for `CCc1nc2ccc(Cl)cn2c1C(=O)NCC(C)C` [compound 239, 6-Chloro-2-ethyl-N-isobutylimidazo[1,2-a]pyridine-3-carboxamide] were 162.2 °C and < 40%.
Taken in the same sequence, the figures for `CCc1nc2ccc(Br)cn2c1C(=O)NCc1ccc(N2CCOCC2)cc1` [compound 240, 6-Bromo-2-ethyl-N-(4-morpholinobenzyl)imidazo[1,2-a]pyridine-3-carboxamide] were 228.2 °C and < 40%.
For `CCc1nc2c(F)cccn2c1C(=O)NCc1ccc(N2CCOCC2)cc1` [compound 242, 2-Ethyl-8-fluoro-N-(4-morpholinobenzyl)imidazo[1,2-a]pyridine-3-carboxamide], the melting point was 197.3 °C. Moreover, on Human 5-lipoxygenase, the inhibition at 10 µM was < 40%.
For `CCc1nc2ccccn2c1C(=O)NCc1ccc(N2CCC(COc3ccc(F)cc3)CC2)cc1` [compound 243, 2-Ethyl-N-(4-(4-((4-fluorophenoxy)methyl)piperidin-1-yl)benzyl)imidazo[1,2-a]pyridine-3-carboxamide], the melting point is 144.2 °C. On Human 5-lipoxygenase, the inhibition at 10 µM is > 69% and the IC50 is < 1000 nM.
Turning to `CCc1nc2ccc(Cl)cn2c1C(=O)NCc1ccc(N2CCC(COc3ccc(F)cc3)CC2)cc1` [compound 244, 6-Chloro-2-ethyl-N-(4-(4-((4-fluorophenoxy)methyl)piperidin-1-yl)benzyl)imidazo[1,2-a]pyridine-3-carboxamide], the melting point stood at 171 °C. Also, at Human 5-lipoxygenase, the inhibition at 10 µM is 40 to 69%.
With `CCc1nc2cc(Cl)ccn2c1C(=O)NCc1ccc(N2CCC(COc3ccc(F)cc3)CC2)cc1` [compound 245, 7-Chloro-2-ethyl-N-(4-(4-((4-fluorophenoxy)methyl)piperidin-1-yl)benzyl)imidazo[1,2-a]pyridine-3-carboxamide], the melting point came out at 186.5 °C. At Human 5-lipoxygenase, the inhibition at 10 µM was < 40%.
On to `CCc1nc2cc(N3CCN(c4ccccc4)CC3)ccn2c1C(=O)NCc1ccc(C(F)(F)F)cc1` [compound 246, 2-Ethyl-7-(4-phenylpiperazin-1-yl)-N-(4-(trifluoromethyl)benzyl)imidazo[1,2-a]pyridine-3-carboxamide], for which the melting point was 235.2 °C. Moreover, the inhibition at 10 µM on Human 5-lipoxygenase was < 40%.
